These results are taken from patent publication US11345912B2, “Directed evolution of multivalent glycopeptides that tightly bind to target proteins” (Brandeis University, priority 2013, dated 2022).

The assay addresses 2G12. As to the kind of experiment: BioLayer Interferometry (BLI) of 2G12 binding to surface-immobilized synthetic glycopeptide. Particulars: Table 6; evaluated by BLI, material prepared synthetically. On the procedure: Biotinylation of 10F2 glycopeptide and determination of 2G12 binding by BLI (BioLayer Interferometry): 200 μg 10F2 glycopeptide in 5.5 μL water was treated with […] of 50 mM TCEP.HCl/1M Tris-HCl buffer, pH 7.8, under argon, using the same inert gas setup employed in the click procedure. After 4.5 h, the reaction mixture was injected into HPLC (Waters Symmetry, 300 C4, 5 μm, 4.6×250 mm, 1 mL/min, 2-42% over 60 min, retention time 46.8 min).
The 2G12 binding of the resulting biotinylated glycopeptide 3 was determined using a BLItz instrument (Fortebio). Biotin-10F2 was loaded (120 sec) onto a streptavidin biosensor as a 500 nM solution in Buffer 1 (20 mM Tris pH 7.5, 150 mM NaCl, 2 mM MgSO4, 0.20 mg/mL BSA, 0.02% Tween-20). The sensor was washed with Buffer 1 for 60 sec, after which time the net response due to loading was observed as 0.2 nm. The sensor was then equilibrated with Buffer 2 (20 mM Tris pH 7.5, 150 mM NaCl, 2 mM MgSO4, 2.0 mg/mL BSA, 0.1% v/v Tween-20) for 90 sec. 2G12 (prepared in Buffer 2) was associated at several concentrations (0.5, 1, 2, 4, 8, 16, 32 nM, in random order) for 600 sec, followed by dissociation into blank Buffer 2 for 600 sec. […]
(In BLI a coated tip is dipped into the sample, and binding shifts an interference pattern.)

One may read the Kd as the free concentration of one partner at which half of the binding sites on the other are occupied at equilibrium, for simple one-to-one binding. A lower Kd goes with a tighter complex. In turn, `CC[C@H](C)[C@H](NC(=O)[C@@H](NC(=O)[C@@H](NC(=O)[C@H](Cc1c[nH]cn1)NC(=O)[C@H](CC(N)=O)NC(=O)[C@H](CC(=O)O)NC(=O)[C@H](CCc1cn(C2CCC(OC3O[C@H](CO[C@H]4O[C@H](CO[C@H]5O[C@H](CO)[C@@H](O)[C@H](O)[C@@H]5O[C@H]5O[C@H](CO)[C@@H](O)[C@H](O)[C@@H]5O)[C@@H](O)[C@H](O[C@H]5O[C@H](CO)[C@@H](O)[C@H](O)[C@@H]5O[C@H]5O[C@H](CO)[C@@H](O)[C@H](O)[C@@H]5O)[C@@H]4O)[C@@H](O)[C@H](O[C@H]4O[C@H](CO)[C@@H](O)[C@H](O)[C@@H]4O[C@H]4O[C@H](CO)[C@@H](O)[C@H](O)[C@@H]4O[C@H]4O[C@H](CO)[C@@H](O)[C@H](O)[C@@H]4O)[C@@H]3O)CC2)nn1)NC(=O)[C@@H](NC(=O)[C@H](CCCCN)NC(=O)[C@H](CCC(=O)O)NC(=O)[C@H](CCCNC(=N)N)NC(=O)[C@H](CCCCN)NC(=O)[C@H](CO)NC(=O)[C@H](CC(N)=O)NC(=O)[C@@H](NC(=O)[C@H](CCCCN)NC(=O)[C@@H](NC(=O)[C@H](C)NC(=O)[C@H](CCc1cn(C2CCC(OC3O[C@H](CO[C@H]4O[C@H](CO[C@H]5O[C@H](CO)[C@@H](O)[C@H](O)[C@@H]5O[C@H]5O[C@H](CO)[C@@H](O)[C@H](O)[C@@H]5O)[C@@H](O)[C@H](O[C@H]5O[C@H](CO)[C@@H](O)[C@H](O)[C@@H]5O[C@H]5O[C@H](CO)[C@@H](O)[C@H](O)[C@@H]5O)[C@@H]4O)[C@@H](O)[C@H](O[C@H]4O[C@H](CO)[C@@H](O)[C@H](O)[C@@H]4O[C@H]4O[C@H](CO)[C@@H](O)[C@H](O)[C@@H]4O[C@H]4O[C@H](CO)[C@@H](O)[C@H](O)[C@@H]4O)[C@@H]3O)CC2)nn1)NC=O)[C@@H](C)O)[C@@H](C)O)[C@@H](C)O)C(C)C)[C@@H](C)O)C(=O)N[C@@H](CCc1cn(C2CCC(OC3O[C@H](CO[C@H]4O[C@H](CO[C@H]5O[C@H](CO)[C@@H](O)[C@H](O)[C@@H]5O[C@H]5O[C@H](CO)[C@@H](O)[C@H](O)[C@@H]5O)[C@@H](O)[C@H](O[C@H]5O[C@H](CO)[C@@H](O)[C@H](O)[C@@H]5O[C@H]5O[C@H](CO)[C@@H](O)[C@H](O)[C@@H]5O)[C@@H]4O)[C@@H](O)[C@H](O[C@H]4O[C@H](CO)[C@@H](O)[C@H](O)[C@@H]4O[C@H]4O[C@H](CO)[C@@H](O)[C@H](O)[C@@H]4O[C@H]4O[C@H](CO)[C@@H](O)[C@H](O)[C@@H]4O)[C@@H]3O)CC2)nn1)C(=O)N[C@@H](CCCNC(=N)N)C(=O)N[C@@H](CO)C(=O)N[C@H](C(=O)N1CCC[C@H]1C(=O)N[C@@H](Cc1c[nH]c2ccccc12)C(=O)N[C@@H](Cc1ccc(O)cc1)C(=O)N[C@H](C(=O)N[C@@H](Cc1ccc(O)cc1)C(=O)N[C@@H](CCCNC(=N)N)C(=O)N[C@@H](Cc1c[nH]c2ccccc12)C(=O)N[C@@H](CC(C)C)C(=O)N1CCC[C@H]1C(=O)N[C@@H](CC(N)=O)C(=O)NCC(=O)N[C@@H](CO)C(=O)NCC(=O)N[C@@H](CO)C(=O)NCC(=O)N[C@@H](CS)C(=O)N[C@@H](C)C(=O)O)[C@@H](C)O)[C@@H](C)CC` (stereo partly shown) [Clone 10V1-C7S, XATKTNSKREKTXDNHVTIXRSIPWYTYRWLPN] displayed a Kd of 5.6 nM.
